Data reported in ChEMBL document CHEMBL1806498, “Novel imidazo[1,2-a]pyridine based inhibitors of the IGF-1 receptor tyrosine kinase: optimization of the aniline” (Bioorg Med Chem Lett, 2011).

Assays:
[1] = physchem; details: buffer, pH 7.4
[2] = Dissociation constant, pKa of the compound at pH 7.4 by UV spectrophotometric titration; type: physicochemical
[3] = physchem; details: octanol/water
[4] = Aqueous solubility of the compound in phosphate buffer at pH 7.4; type: physicochemical

Row | pKa [2] | solubility [4] [µM] | Compound | logD [1] | logP [3]
1 | 8.7 | – | COc1cc(N2CC3CNCC(C2)O3)ccc1Nc1ncc(Cl)c(-c2cnc3ccccn23)n1 | 2.3 | 3.6
2 | 8.4 | – | COc1cc(N2CC3CN(CCO)CC(C2)O3)ccc1Nc1ncc(Cl)c(-c2cnc3ccccn23)n1 | – | –
3 | – | < 0.6 | COc1cc(N2CCN(S(C)(=O)=O)CC2)ccc1Nc1ncc(Cl)c(-c2cnc3ccccn23)n1 | – | –

Row | Compound | pKa [2] | solubility [4] [µM] | logD [1] | logP [3]
4 | COc1cc(N2CC3COCC(C2)N3)ccc1Nc1ncc(Cl)c(-c2cnc3ccccn23)n1 | 6.7 | – | 3 | 3.1
